For 27 compounds, EC50 results are on record in patent US9908868B2, “Isoindolinone compounds as GPR119 modulators for the treatment of diabetes, obesity, dyslipidemia and related disorders” (SANOFI, priority 2014, dated 2018).

The EC50 is the concentration at which the effect is half-maximal.

The target in this experiment is T1, human GPR119 (Homo sapiens, UniProt Q8TDV5).
T1 construct: expressed in transfected cells
T1 sequence (Q8TDV5 1-335): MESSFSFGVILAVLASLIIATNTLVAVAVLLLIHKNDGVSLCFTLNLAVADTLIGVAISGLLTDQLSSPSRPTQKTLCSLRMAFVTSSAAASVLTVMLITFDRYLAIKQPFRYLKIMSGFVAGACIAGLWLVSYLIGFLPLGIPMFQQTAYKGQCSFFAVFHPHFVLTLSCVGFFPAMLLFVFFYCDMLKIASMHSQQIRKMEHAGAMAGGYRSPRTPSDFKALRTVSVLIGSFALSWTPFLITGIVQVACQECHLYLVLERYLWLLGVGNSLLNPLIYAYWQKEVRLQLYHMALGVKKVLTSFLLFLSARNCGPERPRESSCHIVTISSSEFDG
Put plainly: Functional cellular assay measuring GPR119-mediated cAMP release (HTRF) in HEK-293 cells stably expressing recombinant human GPR119. Type of experiment: cell-based. The following applies: cAMP response, cell line expressing human GPR119, 30 minutes at room temperature. The procedure, abridged: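 HEK-293 cells stably expressing recombinant human GPR119, suspended at 400000 cells/mL in HBSS/20 mM HEPES/0.1% BSA/2 mM IBMX, exposed to compound for 30 minutes at room temperature. cAMP detected by HTRF (665/620 nm ratio) after 1 h with reagents in lysis buffer. EC50 taken as concentration giving 50% of maximal activation.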
In the case of `O=C(O)CN1Cc2c(F)cc(N3CC[C@@H](Oc4ccc(OCCC5CC5)nc4)C3=O)cc2C1=O` [Example 3-03, 2-[6-[(3R)-3-[[6-(2-cyclopropylethoxy)-3-pyridyl]oxy]-2-oxo-pyrrolidin-1-yl]-4-fluoro-1-oxo-isoindolin-2-yl]acetic acid], the EC50 stood at 0.087 µM.

On to `O=C(O)CNC(=O)CN1Cc2ccc(N3CC[C@@H](Oc4ccc(OCC5CC5)nc4)C3=O)cc2C1=O` [Example 3-04, 2-[[2-[6-[(3R)-3-[[6-(cyclopropylmethoxy)-3-pyridyl]oxy]-2-oxo-pyrrolidin-1-yl]-1-oxo-isoindolin-2-yl]acetyl]amino]acetic acid], for which the EC50 amounted to 0.807 µM. On to `O=C(O)CN1Cc2ccc(N3CC[C@@H](Oc4ccc(OCC(F)(F)F)nc4)C3=O)cc2C1=O` [Example 3-05, 2-[1-oxo-6-[(3R)-2-oxo-3-[[6-(2,2,2-trifluoroethoxy)-3-pyridyl]oxy]pyrrolidin-1-yl]isoindolin-2-yl]acetic acid], for which the EC50 was 0.544 µM. The figure for `O=C(CN1Cc2ccc(N3CC[C@@H](Oc4ccc(OCC5CC5)nc4)C3=O)cc2C1=O)N1CCCC1` [Example 4-01, 6-[(3R)-3-[[6-(cyclopropylmethoxy)-3-pyridyl]oxy]-2-oxo-pyrrolidin-1-yl]-2-(2-oxo-2-pyrrolidin-1-yl-ethyl)isoindolin-1-one] is 0.106 µM; for `COCCNC(=O)CN1Cc2ccc(N3CC[C@@H](Oc4ccc(OCC5CC5)nc4)C3=O)cc2C1=O` [Example 4-02, 2-[6-[(3R)-3-[[6-(cyclopropylmethoxy)-3-pyridyl]oxy]-2-oxo-pyrrolidin-1-yl]-1-oxo-isoindolin-2-yl]-N-(2-methoxyethyl)acetamide] it is 0.144 µM; for `O=C(CN1Cc2ccc(N3CC[C@@H](Oc4ccc(OCC5CC5)nc4)C3=O)cc2C1=O)N1CCC(O)CC1` [Example 4-03, 6-[(3R)-3-[[6-(cyclopropylmethoxy)-3-pyridyl]oxy]-2-oxo-pyrrolidin-1-yl]-2-[2-(4-hydroxy-1-piperidyl)-2-oxo-ethyl]isoindolin-1-one] it is 0.206 µM. `O=C(CN1Cc2ccc(N3CC[C@@H](Oc4ccc(OCC5CC5)nc4)C3=O)cc2C1=O)N1CC(O)C1` [Example 4-04, 6-[(3R)-3-[[6-(cyclopropylmethoxy)-3-pyridyl]oxy]-2-oxo-pyrrolidin-1-yl]-2-[2-(3-hydroxyazetidin-1-yl)-2-oxo-ethyl]isoindolin-1-one]: the EC50 turned out to be 0.197 µM. The figure for `O=C(CN1Cc2ccc(N3CC[C@@H](Oc4ccc(OCC5CC5)nc4)C3=O)cc2C1=O)NCCO` [Example 4-05, 2-[6-[(3R)-3-[[6-(cyclopropylmethoxy)-3-pyridyl]oxy]-2-oxo-pyrrolidin-1-yl]-1-oxo-isoindolin-2-yl]-N-(2-hydroxyethyl)acetamide] is 0.249 µM; for `CN(CCO)C(=O)CN1Cc2ccc(N3CC[C@@H](Oc4ccc(OCC5CC5)nc4)C3=O)cc2C1=O` [Example 4-06, 2-[6-[(3R)-3-[[6-(cyclopropylmethoxy)-3-pyridyl]oxy]-2-oxo-pyrrolidin-1-yl]-1-oxo-isoindolin-2-yl]-N-(2-hydroxyethyl)-N-methyl-acetamide] it is 0.281 µM.

For `NC(=O)CN1Cc2ccc(N3CC[C@@H](Oc4ccc(OCC5CC5)nc4)C3=O)cc2C1=O` [Example 4-07, 2-[6-[(3R)-3-[[6-(cyclopropylmethoxy)-3-pyridyl]oxy]-2-oxo-pyrrolidin-1-yl]-1-oxo-isoindolin-2-yl]acetamide], the EC50 is 0.163 µM.

Turning to `O=C(CN1Cc2ccc(N3CC[C@@H](Oc4ccc(OCC5CC5)nc4)C3=O)cc2C1=O)NC1CC1` [Example 4-08, N-cyclopropyl-2-[6-[(3R)-3-[[6-(cyclopropylmethoxy)-3-pyridyl]oxy]-2-oxo-pyrrolidin-1-yl]-1-oxo-isoindolin-2-yl]acetamide], the EC50 amounted to 0.168 µM. In the case of `CNC(=O)CN1Cc2ccc(N3CC[C@@H](Oc4ccc(OCC5CC5)nc4)C3=O)cc2C1=O` [Example 4-09, 2-[6-[(3R)-3-[[6-(cyclopropylmethoxy)-3-pyridyl]oxy]-2-oxo-pyrrolidin-1-yl]-1-oxo-isoindolin-2-yl]-N-methyl-acetamide], the EC50 amounted to 0.107 µM. The figure for `O=C(CN1Cc2ccc(N3CC[C@@H](Oc4ccc(Oc5ccc(F)cc5)nc4)C3=O)cc2C1=O)N1CC(O)C1` [Example 4-10, 6-[(3R)-3-[[6-(4-fluorophenoxy)-3-pyridyl]oxy]-2-oxo-pyrrolidin-1-yl]-2-[2-(3-hydroxyazetidin-1-yl)-2-oxo-ethyl]isoindolin-1-one] is 0.208 µM; for `O=C(CN1Cc2ccc(N3CC[C@@H](Oc4ccc(Oc5ccc(F)cc5)nc4)C3=O)cc2C1=O)N1CCC(O)CC1` [Example 4-11, 6-[(3R)-3-[[6-(4-fluorophenoxy)-3-pyridyl]oxy]-2-oxo-pyrrolidin-1-yl]-2-[2-(4-hydroxy-1-piperidyl)-2-oxo-ethyl]isoindolin-1-one] it is 0.218 µM; for `CN(CCO)C(=O)CN1Cc2ccc(N3CC[C@@H](Oc4ccc(Oc5ccc(F)cc5)nc4)C3=O)cc2C1=O` [Example 4-12, 2-[6-[(3R)-3-[[6-(4-fluorophenoxy)-3-pyridyl]oxy]-2-oxo-pyrrolidin-1-yl]-1-oxo-isoindolin-2-yl]-N-(2-hydroxyethyl)-N-methyl-acetamide] it is 0.297 µM. The result for `CCOc1ccc(O[C@@H]2CCN(c3cc(F)c4c(c3)C(=O)N(CC(=O)NC)C4)C2=O)cn1` [Example 4-13, 2-[6-[(3R)-3-[(6-ethoxy-3-pyridyl)oxy]-2-oxo-pyrrolidin-1-yl]-4-fluoro-1-oxo-isoindolin-2-yl]-N-methyl-acetamide] reads 0.326 µM; that for `CCOc1ccc(O[C@@H]2CCN(c3cc(F)c4c(c3)C(=O)N(CC(=O)N(CC)CC)C4)C2=O)cn1` [Example 4-14, 2-[6-[(3R)-3-[(6-ethoxy-3-pyridyl)oxy]-2-oxo-pyrrolidin-1-yl]-4-fluoro-1-oxo-isoindolin-2-yl]-N,N-diethyl-acetamide], 0.288 µM. The figure for `CCOc1ccc(O[C@@H]2CCN(c3cc(F)c4c(c3)C(=O)N(CC(=O)NCCO)C4)C2=O)cn1` [Example 4-15, 2-[6-[(3R)-3-[(6-ethoxy-3-pyridyl)oxy]-2-oxo-pyrrolidin-1-yl]-4-fluoro-1-oxo-isoindolin-2-yl]-N-(2-hydroxyethyl)acetamide] is 0.547 µM. For the compound `CCOc1ccc(O[C@@H]2CCN(c3cc(F)c4c(c3)C(=O)N(CC(N)=O)C4)C2=O)cn1` [Example 4-16, 2-[6-[(3R)-3-[(6-ethoxy-3-pyridyl)oxy]-2-oxo-pyrrolidin-1-yl]-4-fluoro-1-oxo-isoindolin-2-yl]acetamide], the EC50 worked out at 0.271 µM.

`CCOc1ccc(O[C@@H]2CCN(c3cc(F)c4c(c3)C(=O)N(CC(=O)N3CCCC3)C4)C2=O)cn1` [Example 4-17, 6-[(3R)-3-[(6-ethoxy-3-pyridyl)oxy]-2-oxo-pyrrolidin-1-yl]-4-fluoro-2-(2-oxo-2-pyrrolidin-1-yl-ethyl)isoindolin-1-one]: the EC50 was determined as 0.191 µM.

Consider `CCOc1ccc(O[C@@H]2CCN(c3cc(F)c4c(c3)C(=O)N(CC(=O)NCCOC)C4)C2=O)cn1` [Example 4-18, 2-[6-[(3R)-3-[(6-ethoxy-3-pyridyl)oxy]-2-oxo-pyrrolidin-1-yl]-4-fluoro-1-oxo-isoindolin-2-yl]-N-(2-methoxyethyl)acetamide], for which the EC50 is 0.381 µM. The result for `CCOc1ccc(O[C@@H]2CCN(c3cc(F)c4c(c3)C(=O)N(CC(=O)N3CCC(O)CC3)C4)C2=O)cn1` [Example 4-19, 6-[(3R)-3-[(6-ethoxy-3-pyridyl)oxy]-2-oxo-pyrrolidin-1-yl]-4-fluoro-2-[2-(4-hydroxy-1-piperidyl)-2-oxo-ethyl]isoindolin-1-one] reads 0.297 µM. The figure for `COCCNC(=O)CN1Cc2c(F)cc(N3CC[C@@H](Oc4ccc(OCCC5CC5)nc4)C3=O)cc2C1=O` [Example 4-20, 2-[6-[(3R)-3-[[6-(2-cyclopropylethoxy)-3-pyridyl]oxy]-2-oxo-pyrrolidin-1-yl]-4-fluoro-1-oxo-isoindolin-2-yl]-N-(2-methoxyethyl)acetamide] is 0.062 µM. `CCOc1ccc(O[C@@H]2CCN(c3cc(F)c4c(c3)C(=O)N(CC(=O)N(C)C)C4)C2=O)cn1` [Example 4-21, 2-[6-[(3R)-3-[(6-ethoxy-3-pyridyl)oxy]-2-oxo-pyrrolidin-1-yl]-4-fluoro-1-oxo-isoindolin-2-yl]-N,N-dimethyl-acetamide]: the EC50 worked out at 0.222 µM. The result for `O=C(CN1Cc2c(F)cc(N3CC[C@@H](Oc4ccc(OCC5CC5)nc4)C3=O)cc2C1=O)N1CCC(O)CC1` [Example 4-22, 6-[(3R)-3-[[6-(cyclopropylmethoxy)-3-pyridyl]oxy]-2-oxo-pyrrolidin-1-yl]-4-fluoro-2-[2-(4-hydroxy-1-piperidyl)-2-oxo-ethyl]isoindolin-1-one] reads 0.088 µM. As for `COCCNC(=O)CN1Cc2c(F)cc(N3CC[C@@H](Oc4ccc(OCC5CC5)nc4)C3=O)cc2C1=O` [Example 4-23, 2-[6-[(3R)-3-[[6-(cyclopropylmethoxy)-3-pyridyl]oxy]-2-oxo-pyrrolidin-1-yl]-4-fluoro-1-oxo-isoindolin-2-yl]-N-(2-methoxyethyl)acetamide], the EC50 turned out to be 0.157 µM. The result for `O=C(CN1Cc2c(F)cc(N3CC[C@@H](Oc4ccc(OCC5CC5)nc4)C3=O)cc2C1=O)NCCO` [Example 4-24, 2-[6-[(3R)-3-[[6-(cyclopropylmethoxy)-3-pyridyl]oxy]-2-oxo-pyrrolidin-1-yl]-4-fluoro-1-oxo-isoindolin-2-yl]-N-(2-hydroxyethyl)acetamide] reads 0.266 µM.
